{"source": "patent US5374541A", "about": "“Combined use of β-galactosidase and sialyltransferase coupled with in situ regeneration of CMP-sialic acid for one pot synthesis of oligosaccharides” (priority 1993, dated 1994)", "key": {"[1]": {"tested_on": "B. circulans β-galactosidase (EC 3.2.1.23)", "test": "Relative rates of galactoside substrates with B. circulans β-galactosidase", "type": "biochemical, Bacillus circulans", "details": "Lac = 100", "description": "That β-galactosidase accepts the following substrates with the indicated, parenthesized relative rates: Lac (100), o-nitrophenyl β-galactoside (10.6), methyl β-galactoside (1)."}, "[2]": {"molecular_target": "T1, α(2,3)sialyltransferase (EC 2.4.99.4) (Sus scrofa, UniProt Q02745)", "T1 sequence (Q02745 1-343)": "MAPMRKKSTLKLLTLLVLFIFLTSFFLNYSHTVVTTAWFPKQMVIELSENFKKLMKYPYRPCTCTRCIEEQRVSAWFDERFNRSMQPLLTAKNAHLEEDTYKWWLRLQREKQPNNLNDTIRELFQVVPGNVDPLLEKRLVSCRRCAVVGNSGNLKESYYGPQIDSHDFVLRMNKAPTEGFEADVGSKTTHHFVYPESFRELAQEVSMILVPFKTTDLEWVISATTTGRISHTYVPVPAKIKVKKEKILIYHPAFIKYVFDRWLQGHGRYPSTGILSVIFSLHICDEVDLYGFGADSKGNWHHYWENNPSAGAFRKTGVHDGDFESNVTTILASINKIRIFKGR", "details": "Table 1; cited from earlier work"}, "[3]": {"molecular_target": "T2, α(2,6)sialyltransferase, rat liver (Rattus norvegicus, UniProt P13721)", "T2 sequence (P13721 1-403)": "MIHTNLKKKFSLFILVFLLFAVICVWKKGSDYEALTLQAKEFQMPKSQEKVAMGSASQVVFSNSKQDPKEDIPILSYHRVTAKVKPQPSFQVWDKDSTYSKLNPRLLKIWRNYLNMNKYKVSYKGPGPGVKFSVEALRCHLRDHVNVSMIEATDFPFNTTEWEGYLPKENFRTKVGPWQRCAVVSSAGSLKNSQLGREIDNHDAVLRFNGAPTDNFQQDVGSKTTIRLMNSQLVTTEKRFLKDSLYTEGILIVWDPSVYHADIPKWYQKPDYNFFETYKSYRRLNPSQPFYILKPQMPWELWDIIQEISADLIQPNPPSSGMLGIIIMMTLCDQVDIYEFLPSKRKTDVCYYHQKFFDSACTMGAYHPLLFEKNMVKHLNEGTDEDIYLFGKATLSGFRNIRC", "details": "cited from earlier work; for substrate quality / sialylated product formation: Table 1 footnotes 4 and 5, rat liver α(2,6)sialyltransferase, Weinstein et al."}, "[4]": {"molecular_target": "T2, α(2,6)sialyltransferase, rat liver", "test": "Km and Vmax of acceptor molecules for rat liver α(2,6)sialyltransferase", "type": "biochemical", "details": "Table 1, footnoted values approximated from Weinstein et al.", "source_text": "Km is the Michaelis constant in units of moles/liter. Vmax is the reaction velocity at a constant concentration of enzyme, and is in units of enzyme units/milligram, one enzyme unit being that amount of enzyme that will catalyze the transformation of one micromole of substrate per minute under optimal conditions. The value of Km /Vmax is the slope of the line obtained from a Lineweaver-Burk plot.\nValues for Km and Vmax for several galactosyl glycosides are available in the published literature and can be obtained using well known enzymatic techniques."}, "[5]": {"molecular_target": "T3, α(2,6)sialyltransferase (EC 2.4.99.1) (Bos taurus, UniProt O18974)", "T3 construct": "literature kinetics (Beyer, Paulson) and synthesis tests", "T3 sequence (O18974 1-405)": "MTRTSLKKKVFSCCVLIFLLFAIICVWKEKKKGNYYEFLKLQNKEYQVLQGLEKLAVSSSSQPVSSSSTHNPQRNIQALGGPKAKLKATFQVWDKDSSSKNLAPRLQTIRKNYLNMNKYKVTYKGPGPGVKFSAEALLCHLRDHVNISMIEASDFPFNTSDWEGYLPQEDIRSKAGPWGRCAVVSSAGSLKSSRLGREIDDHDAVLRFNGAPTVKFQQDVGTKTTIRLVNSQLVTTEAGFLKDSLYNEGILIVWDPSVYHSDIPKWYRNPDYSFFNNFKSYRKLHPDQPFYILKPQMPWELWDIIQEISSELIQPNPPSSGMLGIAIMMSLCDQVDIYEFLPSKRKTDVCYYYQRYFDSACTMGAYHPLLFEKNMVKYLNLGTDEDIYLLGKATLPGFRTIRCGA", "details": "cited from earlier work"}, "[6]": {"molecular_target": "T3, α(2,6)sialyltransferase (EC 2.4.99.1)", "test": "Sialylation of prepared galactosyl glycosides by the sialyltransferase", "type": "biochemical, bovine", "details": "one pot reaction, result in words", "procedure": "A representative synthesis of Neu5Acα(2,6)-LacNAc (Compound 1) is discussed below. To a 1.07 mL HEPES buffer (0.2M, 20 mM MgCl2, 5.3 mM MnCl2, 20 mM KCl, pH 7.5) containing 12.3 mg Neu5Ac (20 mM; provided by Dr. U. Kragl, Research Center, Julich, Germany), 180 mg Lac (250 mM), 265 mg GlcNAc (600 mM), 30.2 mg PEP (trisodium salt, 40 mM), CMP (2 mM) and ATP (0.2 mM) were added myokinase (MK, EC 2.7.4.3; 6 U), pyruvate kinase (PK, EC 2.7.1.40; 80 U), inorganic pyrophosphatase (PPase, EC 3.6.1.1; 4 U), CMP-Neu5Ac synthetase (EC 2.7.43; 0.32 U), α(2,6)sialyltransferase (EC 2.4.99.1; 0,052 U) and 1 mg of crude β-galactosidase (EC 3.2.1.23) from Bacillus Circulans (provided by Daiwa Kasei KK, Osaka, Japan). The total volume was adjusted to 2 mL.\nIn a similar manner, the sialylated saccharide (Compound 2) was also prepared. […] Compound 10 was prepared as follows."}, "[7]": {"details": "aqueous buffers as are used here; cited from earlier work"}, "[8]": {"molecular_target": "T4, α(2,3)sialyltransferase (EC 2.4.99.6) (Rattus norvegicus, UniProt Q02734)", "T4 sequence (Q02734 1-374)": "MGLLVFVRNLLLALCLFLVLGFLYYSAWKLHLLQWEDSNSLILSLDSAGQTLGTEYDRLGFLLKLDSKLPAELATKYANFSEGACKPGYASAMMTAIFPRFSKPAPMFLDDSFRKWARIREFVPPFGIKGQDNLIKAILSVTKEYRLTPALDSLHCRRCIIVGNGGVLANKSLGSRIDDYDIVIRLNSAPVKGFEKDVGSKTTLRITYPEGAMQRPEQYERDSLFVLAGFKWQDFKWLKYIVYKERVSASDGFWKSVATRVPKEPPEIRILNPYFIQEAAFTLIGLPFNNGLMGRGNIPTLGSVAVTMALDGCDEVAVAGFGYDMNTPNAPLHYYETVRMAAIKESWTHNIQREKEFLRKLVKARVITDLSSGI", "details": "Table 1; cited from earlier work"}, "[9]": {"details": "Table 1, α(2,6)sialyltransferase EC 2.4.99.1"}, "[10]": {"details": "α(2,6)sialyltransferase, Paulson et al."}, "[11]": {"details": "Table 1, α(2,6)sialyltransferase, rat liver"}}, "note": "Entries after “also recorded” stand apart in the source; their conditions may differ. Read-outs that look alike come from different tables or passages of the source."}
{"smiles": "CO[C@@H]1O[C@H](CO)[C@H](O)[C@H](O)[C@H]1O", "note": "[methyl β-galactoside]", "values": [{"measurement": "relative rate as substrate", "setting": "[1]", "value": 1}]}
{"smiles": "CC(=O)N[C@H]1C(O)O[C@H](CO)[C@H](O)[C@@H]1O[C@@H]1O[C@H](CO)[C@H](O)[C@H](O)[C@H]1O", "note": "(stereo partly shown) [Galβ1→3GalNAc]", "values": [{"measurement": "Km", "setting": "[2]", "value": 0.21, "unit": "mM"}, {"measurement": "Vmax", "setting": "[2]", "value": 8.9, "unit": "units/mg"}, {"measurement": "substrate quality / sialylated product formation", "setting": "[3]", "value": "No sialylated product was reported to be formed"}, {"measurement": "Km/Vmax", "setting": "[4]", "value": "very large"}]}
{"smiles": "CC(=O)N[C@H]1C(O)O[C@H](CO[C@@H]2O[C@H](CO)[C@H](O)[C@H](O)[C@H]2O)[C@@H](O)[C@@H]1O", "note": "(stereo partly shown) [Galβ1→6GlcNAc]", "values": [{"measurement": "Km", "setting": "[2]", "value": 29, "unit": "mM"}, {"measurement": "Vmax", "setting": "[2]", "value": 0.24, "unit": "units/mg"}, {"measurement": "Vmax", "setting": "[5]; [9]", "value": 0.03, "unit": "units/mg"}, {"measurement": "Vmax", "setting": "[5]; [10]", "value": 0.03}, {"measurement": "Vmax", "setting": "[5]; α(2,6)sialyltransferase, low Vmax", "value": 3, "unit": "%"}]}
{"smiles": "[N-]=[N+]=N[C@H]1C(O)O[C@H](CO)[C@@H](O[C@@H]2O[C@H](CO)[C@H](O)[C@H](O)[C@H]2O)[C@@H]1O", "note": "(stereo partly shown) [Compound 4, Galβ1→4(2-N3)Glc]", "values": [{"measurement": "substrate for the sialyltransferase / sialylated in the reaction", "setting": "[6]", "value": "very weak substrate; also recorded: sialylated, but poorly"}]}
{"smiles": "CC(=O)NC1C(O)CC(OP(=O)(O)OCC2OC(n3ccc(N)nc3=O)C(O)C2O)(C(=O)O)OC1C(O)C(O)CO", "note": "(stereo not shown) [CMP-sialic acid]", "values": [{"measurement": "half-life", "setting": "[7]", "value": "only a few hours"}]}
{"smiles": "CC(=O)N[C@H]1C(O)O[C@H](CO)[C@@H](O)[C@@H]1O[C@@H]1O[C@H](CO)[C@H](O)[C@H](O)[C@H]1O", "note": "(stereo partly shown) [Galβ1→3GlcNAc]", "values": [{"measurement": "Km", "setting": "[2]", "value": 65, "unit": "mM"}, {"measurement": "Vmax", "setting": "[2]", "value": 4.4, "unit": "units/mg"}, {"measurement": "substrate quality / sialylated product formation", "setting": "[3]", "value": "poor substrate"}, {"measurement": "Vmax", "setting": "[8]", "value": 1.16, "unit": "units/mg"}]}
{"smiles": "O=[N+]([O-])c1ccccc1O[C@@H]1O[C@H](CO)[C@H](O)[C@H](O)[C@H]1O", "note": "[o-nitrophenyl β-galactoside]", "values": [{"measurement": "relative rate as substrate", "setting": "[1]", "value": 10.6}]}
{"smiles": "OC[C@H]1O[C@@H](O[C@H]2[C@H](O)[C@@H](O)C(O)O[C@@H]2CO)[C@H](O)[C@@H](O)[C@H]1O", "note": "(stereo partly shown) [Galβ1→4Glc]", "values": [{"measurement": "Vmax", "setting": "[2]", "value": 0.62, "unit": "units/mg"}, {"measurement": "relative rate as substrate", "setting": "[1]", "value": 100}, {"measurement": "Vmax", "setting": "[3]; [11]", "value": 0.30, "unit": "units/mg"}, {"measurement": "Vmax", "setting": "[5]; [9]", "value": 1.02, "unit": "units/mg"}, {"measurement": "Vmax", "setting": "[5]; [10]", "value": 1.02}, {"measurement": "Km", "setting": "[8]", "value": 9.4, "unit": "mM"}, {"measurement": "Vmax", "setting": "[8]", "value": 0.91, "unit": "units/mg"}]}
{"smiles": "OC[C@H]1O[C@@H](O[C@H]2[C@H](O)[C@@H](O)C(O)S[C@@H]2CO)[C@H](O)[C@@H](O)[C@H]1O", "note": "(stereo partly shown) [Compound 3, Galβ1→4(5-thio)Glc]", "values": [{"measurement": "substrate for the sialyltransferase / sialylated in the reaction", "setting": "[6]", "value": "not a substrate; also recorded: not sialylated"}]}
{"smiles": "CC(=O)N[C@H]1[C@H](O[C@H]2[C@@H](O)[C@@H](CO)O[C@@H](O[C@H]3[C@H](O)[C@@H](O)C(O)O[C@@H]3CO)[C@@H]2O)O[C@H](CO)[C@@H](O)[C@@H]1O[C@@H]1O[C@H](CO)[C@H](O)[C@H](O)[C@H]1O", "note": "(stereo partly shown) [lacto-N-tetraose, Galβ1→3GlcNAcβ1→3Galβ1→4Glc]", "values": [{"measurement": "Vmax", "setting": "[2]", "value": 3.6, "unit": "units/mg"}, {"measurement": "Vmax", "setting": "[8]", "value": 1.00, "unit": "units/mg"}]}
{"smiles": "CC(=O)N[C@H]1C(O)O[C@H](CO)[C@@H](O[C@@H]2O[C@H](CO)[C@H](O)[C@H](O)[C@H]2O)[C@@H]1O", "note": "(stereo partly shown) [Galβ1→4GlcNAc]", "values": [{"measurement": "Km", "setting": "[2]", "value": 42, "unit": "mM"}, {"measurement": "Vmax", "setting": "[2]", "value": 0.11, "unit": "units/mg"}, {"measurement": "Vmax", "setting": "[3]; [11]", "value": 0.93, "unit": "units/mg"}, {"measurement": "Km", "setting": "[3]; Table 1, α(2,6)sialyltransferase, rat liver, from Weinstein et al.", "value": 1.62, "unit": "mM"}, {"measurement": "Vmax", "setting": "[5]; [9]", "value": 1, "unit": "units/mg"}, {"measurement": "Vmax", "setting": "[5]; [10]", "value": 1.00}, {"measurement": "Vmax", "setting": "[8]", "value": 0.75, "unit": "units/mg"}]}
